From a melting point compilation (Tetko et al.; mined from patent text by program, amines drawn as free bases though some values may be those of a salt)

Row | melting point | SMILES
1 | 167 to 168 °C | NS(=O)(=O)c1ccc(-c2nc(C(F)(F)F)oc2-c2ccc(Cl)cc2)cc1
2 | 98 to 104 °C | COCCCn1nnnc1-c1cc(-c2ccc(C(F)(F)F)cc2)c(O)cc1O
3 | 91 to 94 °C | COC(=O)Cc1nc(N)cc(OC)n1
4 | 66 to 68 °C | O=[N+]([O-])c1cccnc1Nc1ccccc1
5 | > 250 °C | CCNC(=O)c1ccccc1Nc1nc(Nc2cc3c(cc2OC)CC(=O)NCC3)ncc1Cl
6 | 134 to 135 °C | O=c1c(-c2ccc[nH]2)coc2ccccc12
7 | 188 to 192 °C | CCOC(=O)c1cc(O)c(C(=O)c2ccc(Cl)cc2)c([N+](=O)[O-])c1
8 | 50 to 52 °C | CCCCOc1cc(=O)n(CCCC)c2ccccc12
9 | 112 to 114 °C | CC1=C2CCc3cc(Cl)ccc3N2CCC1=O
10 | 135 to 137 °C | O=[N+]([O-])c1ccc(OC2(c3ccccc3)CCN(Cc3ccccc3)CC2)cc1
11 | 132 to 137 °C | N=C(NN=Cc1ccc(OC(F)(F)C(F)F)cc1)NN=Cc1ccc(C(F)(F)F)cc1
12 | 196 to 198 °C | O=[N+]([O-])c1ccc2sc(-c3cccnc3)nc2c1
13 | 202 to 204 °C | Cc1cc(Cl)ccc1NC(=O)c1cccc([N+](=O)[O-])c1C(=O)NC(C)C
14 | 89 to 92 °C | CC[C@H](C)[C@@H](CO)NS(=O)(=O)c1ccc(Cl)c(N)c1
15 | 128 to 129 °C | N#Cc1ccc2[nH]cc(CCNC(=O)OCc3ccccc3)c2c1
16 | 78 to 81 °C | C=CCc1cccc2c(=O)cc(-c3ccccc3F)oc12
17 | 216 to 218 °C | CC(=O)Nc1nc(CCc2ccc(NC(=N)NN)cc2)cs1
18 | 167 to 169 °C | CCOc1ccc(S(=O)(=O)N(CCO)c2ccccc2/C=C/c2ccncc2)cc1
19 | 270 to 273 °C | CC(C)(C)c1ccc2c(c1)-c1c(c(C(=O)C(C#N)C(=O)Nc3ccccc3)nn1-c1ccccc1)CO2 (stereo not given)
20 | 102 to 103 °C | CC(C)(C)OC(=O)N1CCC(Oc2ccccc2C(C)(C)C)CC1

Row | melting point | SMILES
21 | 115 to 117 °C | CCc1nn(CCNC(=O)c2ccccc2)c(CC)c1Cc1cc(Cl)cc(Cl)c1
22 | 186 °C | Cc1nc(NC(=O)C2c3ccccc3Oc3ccccc32)no1
23 | 80 to 83 °C | CCc1ccc2nc(Cl)nc(Cl)c2c1
24 | 202 to 204 °C | CCCCCc1cc2c(nc(O)n2CCCNC(=O)NC2CCCCC2)c(N)n1
25 | 121 to 122 °C | O=S(=O)(Nc1ccccc1COc1cccc2cccnc12)c1ccc(F)cc1
26 | > 300 °C | O=c1[nH]c2[nH]c3ccc(Cl)cc3c2c2c(F)cccc12
27 | 48 to 50 °C | CCOC(=O)c1nc2ccccc2c(=O)n1C
28 | 265 °C | O=C1Nc2c(Cl)cc(Cl)c3cccc1c23
29 | 142 to 144 °C | CCOC(=O)C1(CC(=O)O)C(=O)N(Cc2ccc(Br)cc2F)C(=O)c2cccn21 (stereo not given)
30 | 173 to 175 °C | N#Cc1ccc(NC(=N)Nc2ncccc2OCc2ccccc2)cc1
31 | 82 to 84 °C | N#CC(=Cc1ccc2c(c1)OCO2)CN1CCOCC1
32 | 135 °C | COc1ccc2c(=O)c(-c3ccc(C)cc3)coc2c1OC
33 | 144 to 147 °C | CCC1=C(C(=O)OC)C(c2ccc(F)cc2Cl)N=C(c2cscn2)N1 (stereo not given)
34 | > 350 °C | O=c1c2c([nH]c3nc(N4CCCCC4)nn13)CCCS2
35 | 185 to 187 °C | CC1(C)O[C@@H]2[C@H](O1)[C@@H](CO)O[C@H]2n1cnc2c(N)nc(I)nc21
36 | 164 to 165 °C | N#CCC(=O)Nc1ccc(S(=O)C(F)(F)F)cc1 (stereo not given)
37 | > 300 °C | COc1ccc(-c2[nH]nc3c2C(=O)c2c(NC(=O)N[C@@H]4CCCC[C@@H]4N)cccc2-3)cc1 (relative stereo)
38 | 145 to 150 °C | CC(C)(C)C(CO)NC(=O)C(CC(=O)O)N1C=CN(c2ccc(-c3ccccc3)cc2)C1 (mixture of isomers)
39 | 140 to 142 °C | COc1ccc(CN2C(=O)[C@@H](Cl)[C@H]2[C@@H]2COC(C)(C)O2)c(OC)c1
40 | 163 to 168 °C | CC(=O)Nc1ccc2c(c1)CC2OC#N (stereo not given)
